Consider nine molecules from patent US9737504B2, “Dihydroorotic and acid dehydrogenase inhibitor” (NAI INC., priority 2012, dated 2017).

In series [1] the target is T1, human DHOD (Homo sapiens, UniProt Q02127). The experiment in a line: Measurement of DHOD inhibitory activity (DCIP reduction, end point assay). The format is biochemical. The settings on record: read-out: DHOD inhibition rate (%) 100 nM; 100 nM compound.
Series [2] deals with T1, human DHOD. The series can be described thus: Measurement of DHOD inhibitory activity (DCIP reduction, end point assay). The format is biochemical. The settings on record: for inhibition at 0.2 µM: read-out: DHOD inhibition rate (%) 200 nM, 200 nM compound; for IC50: read-out: IC50 (nM) human DHOD (HsDHOD). As to the method:
The compounds of the present invention were used and measured for their DHOD inhibitory activity at concentrations of 200 nM and 1000 nM.
Reduction of DCIP was measured at 600 nm over 20 minutes.

The subject of a further series is bovine complex II-III. The series can be described thus: Inhibition of bovine complex II-III. The format is biochemical.
A further series relates to OVCAR-8. The series can be described thus: JFCR39 cancer cell growth inhibition test, OVCAR-8. The format is cell-based. The settings on record: Homo sapiens; OVCAR-8, Ov (Ovarian).
For series [3], the system named is HDF cells (human dermal fibroblast cells). The experiment in a line: Inhibitory effect on HDF cells, control vs hypoxic and subnutritional conditions. The format is cell-based. The note with it: for Selectivity = 21% glc(+)gln(+) IC50/1% glc(−)gln(−) IC50: HDF; for IC50: Homo sapiens, HDF normal skin cells. How it is done:
(§1) For these reasons, cells of colorectal and pancreatic cancers, each being regarded as intractable, were used to test the inhibitory effect of compounds under hypoxic and subnutritional conditions. Moreover, the same test was also performed on normal skin cells.
The cells used were two types of cancer cells, i.e., DLD-1 cells (human colorectal cancer cells) and Panc-1 cells (human pancreatic cells), as well as HDF cells (human dermal fibroblast cells).

Series [4] deals with DLD-1 cells (human colorectal cancer cells). The experiment in a line: Inhibitory effect on DLD-1 cells, control vs hypoxic and subnutritional conditions. The format is cell-based. The settings on record: for IC50: Homo sapiens. As to the method:
as §1
The cells used were two types of cancer cells, i.e., DLD-1 cells (human colorectal cancer cells) and Panc-1 cells (human pancreatic cells), as well as HDF cells (human dermal fibroblast cells). Culture conditions were set as follows: 21% oxygen with glucose and […] (10% FBS) for the control group, and 1% oxygen without glucose and […] (10% FBS) for the hypoxic and subnutritional group. The results obtained are shown in Tables 3, 4 and 5, as well as FIGS. 1, 2 and 3.

A further series relates to KM-12. The series can be described thus: JFCR39 cancer cell growth inhibition test, KM-12. The format is cell-based. The note with it: Homo sapiens, KM12; KM-12, Co (Colon).
The subject of the next series is L0X-IMVI. The experiment in a line: JFCR39 cancer cell growth inhibition test, L0X-IMVI. The format is cell-based. The settings on record: Homo sapiens, Me (Melanoma).
For the next series, the system named is MKN74. The experiment in a line: JFCR39 cancer cell growth inhibition test, MKN74. The format is cell-based. The settings on record: Homo sapiens, MKN-74; MKN74, St (Stomac).
A further series concerns MKN28. The series can be described thus: JFCR39 cancer cell growth inhibition test, MKN28. The format is cell-based. The note with it: Homo sapiens, MKN-28; MKN28, St (Stomac).
The next series concerns HCC2998. The series can be described thus: JFCR39 cancer cell growth inhibition test, HCC2998. The format is cell-based. The settings on record: Homo sapiens, HCC 2998; HCC2998, Co (Colon).
For series [5], the system named is human MX-1 breast, LX-1 lung, BL/STX-1 stomach and CX-1 colon carcinomas. The note with it: nude mice, 20 to 40 mg/kg/day; MX-1, LX-1, BL/STX-1, CX-1; cited from earlier work.
For a further series, the system named is DLD-2 colon cancer. The settings on record: in vivo; cited from earlier work.
Another series deals with UMP levels. The settings on record: after treatment with 25 μM NSC368390; cited from earlier work.
Where [6] appears, read: read-out: IC50 DLD-1 [μM] 1% O2 glc(−)gln(−), DLD-1, 1% O2 glc(−)gln(−), 24 hours.
The mark [7] stands for this setting: read-out: IC50 DLD-1 [μM] 1% O2 glc(−)gln(−), DLD-1, 1% O2 glc(−)gln(−), 48 hours.
Where [8] appears, read: read-out: IC50 [μM] 1% O2 glc(−)gln(−), 1% O2 glc(−)gln(−).

Each structure is given as a SMILES string. Where two headings read alike, the source gives them in different places.

T1 sequence (Q02127 whole entry): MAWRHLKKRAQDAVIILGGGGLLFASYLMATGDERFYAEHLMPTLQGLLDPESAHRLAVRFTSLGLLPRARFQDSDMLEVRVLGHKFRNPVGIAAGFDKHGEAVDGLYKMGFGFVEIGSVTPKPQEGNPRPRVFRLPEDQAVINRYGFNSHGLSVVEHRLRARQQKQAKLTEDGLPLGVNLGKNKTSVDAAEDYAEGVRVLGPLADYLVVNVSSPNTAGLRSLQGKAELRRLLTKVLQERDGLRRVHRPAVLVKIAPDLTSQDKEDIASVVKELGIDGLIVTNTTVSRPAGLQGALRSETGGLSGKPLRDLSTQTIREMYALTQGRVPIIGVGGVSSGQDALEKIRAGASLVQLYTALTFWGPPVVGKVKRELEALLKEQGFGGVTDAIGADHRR

In the case of `C/C(C=O)=C\CC/C(C)=C/Cc1c(O)c(Cl)c(C)c(C=O)c1O` [274-9, 3-Chloro-5-[(2E,6E)-3,7-dimethyl-8-oxo-2,6-octadienyl]-4,6-dihydroxy-2-methylbenzaldehyde], the melting point was in the range of 111.2 to 111.4 °C. In addition, the inhibition at 0.1 µM on human DHOD [1] worked out at 98%. In addition, on human DHOD [2], the inhibition at 0.2 µM came out at 90% and the IC50 was 31 ± 3 nM.
In the case of `COC(=O)/C(C)=C/CC/C(C)=C/Cc1c(O)c(Cl)c(C)c(C=O)c1O` [275-10-COOMe, Methyl (2E,6E)-8-(3-chloro-5-formyl-2,6-dihydroxy-4-methyl)phenyl-2,6-dimethyl-2,6-octa dienoate], the half-maximal inhibitory concentration (IC50) stood at 1900 nM in the series on bovine complex II-III, 1.7 µM in [4] (setting [6]), 0.64 µM in series [4] (setting [7]) and 4.2 nM at human DHOD [2]. In addition, the GI50 with OVCAR-8 was found to be 4400 nM; in the series on KM-12 it was 6400 nM. For the same molecule, the “Selectivity = 21% glc(+)gln(+) IC50/1% glc(−)gln(−) IC50” value was more than 32 in series [3]; more than 59 in series [4] (DLD-1, 24 hours); more than 156 in series [4] (DLD-1, 48 hours). Further, the inhibition at 0.1 µM at human DHOD [1] was 100%. Besides, the inhibition at 0.2 µM at human DHOD [2] turned out to be 100%.
In the case of `CC(=O)/C(C)=C/CC/C(C)=C/Cc1c(O)c(Cl)c(C)c(C=O)c1O` [276-9], the melting point lay in the range of 119 to 120 °C. For the same molecule, the inhibition at 0.1 µM on human DHOD [1] worked out at 96%. For the same molecule, on human DHOD [2], the inhibition at 0.2 µM stood at 87% and the IC50 amounted to 24 ± 3 nM.
Consider `C/C(=C\Cc1c(O)c(Cl)c(C)c(C=O)c1O)CC/C=C(\C)C(C)O` (stereo not drawn) [277-9-OH, 3-Chloro-4,6-dihydroxy-2-methyl-5-(2E,6E)-(8-hydroxy-3,7-dimethyl-2,6-nonadienyl)benzaldehyde], for which the inhibition at 0.1 µM on human DHOD [1] amounted to 107%. At human DHOD [2], the inhibition at 0.2 µM was determined as 75% and the half-maximal inhibitory concentration (IC50) came out at 64 nM. The molecule further registered a concentration for 50% growth inhibition (GI50) in the series with KM-12 of 32000 nM.
As to `CC(=O)OC(C)/C(C)=C/CC/C(C)=C/Cc1c(O)c(Cl)c(C)c(C=O)c1O` (stereo not drawn) [277-11-OAc, (3E,7E)-9-(3-Chloro-5-formyl-2,6-dihydroxy-4-methyl)phenyl-3,7-dimethyl-3,7-nonadien-2-yl acetate], the half-maximal inhibitory concentration (IC50) in the series on bovine complex II-III worked out at 4500 nM; in [3] (setting [8]) it was 4 µM; in [4] (setting [6]) it was 1.9 µM; in series [4] (setting [7]), 0.92 µM; on human DHOD [2], 6.5 nM. Moreover, the “Selectivity = 21% glc(+)gln(+) IC50/1% glc(−)gln(−) IC50” value in series [3] is given as more than 25; in series [4] (DLD-1, 24 hours), more than 53; in series [4] (DLD-1, 48 hours) it was more than 109. For the same molecule, the inhibition at 0.1 µM on human DHOD [1] came out at 103%. The GI50 was 1500 nM in the series on L0X-IMVI and 5700 nM in the series on KM-12. The inhibition at 0.2 µM at human DHOD [2] was determined as 97%.
As for `CC(C)=CCC/C(C)=C/CC/C(C)=C/Cc1c(O)c(Cl)c(C)c(C=O)c1O` [280-12, (E,E)-3-Chloro-4,6-dihydroxy-5-(3,7,11-trimethyl-2,6,10-dodecatienyl)-2-methylbenzaldehyde], the half-inhibitory concentration (IC50) in the series with bovine complex II-III is 260 nM; in series [3] (setting [8]) it was 0.17 µM; in [3] (21% O2 glc(+)gln(+), read-out: IC50 [μM] 21% O2 glc(+)gln(+)), 60 µM; in series [4] (setting [6]), 0.069 µM; in [4] (setting [7]) it was 0.025 µM; in [4] (DLD-1, 21% O2 glc(+)gln(+), 24 hours, read-out: IC50 DLD-1 [μM] 21% O2 glc(+)gln(+)) it was 76 µM. Also, the IC50 in series [4] (DLD-1, 21% O2 glc(+)gln(+), 48 hours, read-out: IC50 DLD-1 [μM] 21% O2 glc(+)gln(+)) amounted to 37 µM; at human DHOD [2] it was 6 nM. Moreover, the “Selectivity = 21% glc(+)gln(+) IC50/1% glc(−)gln(−) IC50” value was determined as 353 in [3]; 1100 in series [4] (DLD-1, 24 hours); 1480 in [4] (DLD-1, 48 hours). For the same molecule, the inhibition at 0.1 µM at human DHOD [1] was 94%. Moreover, at human DHOD [2], the inhibition at 0.2 µM was found to be 104%. For the same molecule, the 50% growth inhibitory concentration (GI50) in the series on KM-12 came out at 2000 nM; with MKN74 it was 1300 nM.
As for `C/C(=C\Cc1c(O)c(Cl)c(C)c(C=O)c1O)CC/C=C(\C)CCC1OC1(C)C` (stereo not drawn) [281-12, 3-Chloro-5-(2E,6E)-3,7-dimethyl-9-(3,3-dimethyloxiran-2-yl)-2,6-nonadienyl-4,6-dihydroxy-2-methylbenzaldehyde], the melting point is 36 to 37 °C. Further, at human DHOD [1], the inhibition at 0.1 µM stood at 100%. For the same molecule, on human DHOD [2], the inhibition at 0.2 µM was determined as 79% and the concentration for half-maximal inhibition (IC50) came to 50 ± 5 nM.
Molecule `C/C(=C\COC(=O)C(C)C)CC/C(C)=C/Cc1c(O)c(Cl)c(C)c(C=O)c1O` [287-12-OCOiPr, (2E,6E)-8-(3-Chloro-5-formyl-2,6-dihydroxy-4-methylphenyl)-3,6-dimethyl-2,6-octa dienyl isobutylate] displayed a melting point of 62 to 63 °C. In the series with MKN28, this molecule registered a concentration for 50% growth inhibition (GI50) of 10000 nM. In the series on HCC2998, the GI50 is 15000 nM. For the same molecule, the GI50 in the series with OVCAR-8 amounted to 9100 nM. Further, the inhibition at 0.1 µM at human DHOD [1] was found to be 109%. Moreover, at human DHOD [2], the inhibition at 0.2 µM was 101% and the concentration for half-maximal inhibition (IC50) came to 21.5 nM. The molecule also yielded a 50% growth inhibitory concentration (GI50) in the series with KM-12 of 10000 nM. In the series with MKN74, this molecule gave a GI50 of 14000 nM.
For `Cc1c(-c2ccc(-c3ccccc3F)cc2)nc2ccc(F)cc2c1C(=O)[O-].[Na+]` [NSC368390, 6-Fluoro-2-(2′-fluoro-1,1′-biphenyl-4-yl)-3-methyl-4-quinolinecarboxylic Acid Sodium Salt], in series [5], the “inhibition of the growth of human carcinomas” value is listed as not below 90%. For the same molecule, the “growth inhibition of DLD-2 colon cancer” value in the series with DLD-2 colon cancer was 98%. The “reduction of UMP levels” value in the series with UMP levels was 50%.

The term inhibition denotes the change of the read-out against control, counted positive when it falls. As usually defined, the melting point is the temperature of the solid-liquid transition. In general, IC50 refers to the midpoint of a concentration-inhibition curve. Broadly, the GI50 is the concentration at which growth is held to half of that of the control. Higher therefore signals less potent growth inhibition.
